Test system: 855422-203-R-J1-PDC complex spheroid viability
Test: Anticancer human tumor 855422-203-R-J1-PDC patient-derived bladder carcinoma cell line growth inhibition [POLQ]
Details: for IC50: curve of first compound; for viability, T/C: stronger effect = lower value
Summary of the method: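 Growth inhibition in 3D: complex spheroids (tumor PDC, HUVEC, MSC) treated with POLQ inhibitor combinations; where Cmax unknown, highest tested concentration 10 microM, except SN-38 at 1 microM.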

[1] = second compound 0.0316 µM, first compound 0.00316 µM
[2] = second compound 0.0316 µM, first compound 0.01 µM
[3] = second compound 0.0316 µM, first compound 0.0316 µM
[4] = second compound 0.0316 µM, first compound 0.1 µM
[5] = second compound 0.0316 µM, first compound 0.316 µM
[6] = second compound 0.0316 µM, first compound 1 µM
[7] = second compound 0.1 µM, first compound 0.00316 µM
[8] = second compound 0.1 µM, first compound 0.01 µM
[9] = second compound 0.1 µM, first compound 0.0316 µM
[10] = second compound 0.1 µM, first compound 0.1 µM
[11] = second compound 0.1 µM, first compound 0.316 µM
[12] = second compound 0.1 µM, first compound 1 µM
[13] = second compound 0.316 µM, first compound 0.00316 µM
[14] = second compound 0.316 µM, first compound 0.01 µM
[15] = second compound 0.316 µM, first compound 0.0316 µM
[16] = second compound 0.316 µM, first compound 0.1 µM
[17] = second compound 0.316 µM, first compound 0.316 µM
[18] = second compound 0.316 µM, first compound 1 µM
[19] = second compound 1 µM, first compound 0.00316 µM
[20] = second compound 1 µM, first compound 0.01 µM
[21] = second compound 1 µM, first compound 0.0316 µM
[22] = second compound 1 µM, first compound 0.1 µM
[23] = second compound 1 µM, first compound 0.316 µM
[24] = second compound 1 µM, first compound 1 µM
[25] = second compound 3.16 µM, first compound 0.00316 µM
[26] = second compound 3.16 µM, first compound 0.01 µM
[27] = second compound 3.16 µM, first compound 0.0316 µM
[28] = second compound 3.16 µM, first compound 0.1 µM
[29] = second compound 3.16 µM, first compound 0.316 µM
[30] = second compound 3.16 µM, first compound 1 µM
[31] = second compound 10 µM, first compound 0.00316 µM
[32] = second compound 10 µM, first compound 0.01 µM
[33] = second compound 10 µM, first compound 0.0316 µM
[34] = second compound 10 µM, first compound 0.1 µM
[35] = second compound 10 µM, first compound 0.316 µM
[36] = second compound 10 µM, first compound 1 µM
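Further: spheroids exposed to compounds for seven days before readout.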

**Q.** For `CCc1c2c(nc3ccc(O)cc13)-c1cc3c(c(=O)n1C2)COC(=O)[C@]3(O)CC` + Cc1cccc(N(C)C(=O)C2C(O)CCN2c2nc(C)cc(C(F)(F)F)c2C#N)c1, which IC50 (second compound 0.0316 µM) is on record?
**A.** 3.34 nM

**Q.** And the IC50 (second compound 0.1 µM)?
**A.** 3.49 nM

**Q.** And the IC50 (second compound 0.316 µM)?
**A.** < 3.16 nM

**Q.** And the IC50 (second compound 1 µM)?
**A.** < 3.16 nM

**Q.** And the IC50 (second compound 3.16 µM)?
**A.** < 3.16 nM

**Q.** And the IC50 (second compound 10 µM)?
**A.** < 3.16 nM

**Q.** And the viability, T/C [1]?
**A.** 52.3%

**Q.** What about the viability, T/C [2] of the same molecule?
**A.** 9.87%

**Q.** And the viability, T/C [3]?
**A.** 7.42%

**Q.** What about the viability, T/C [4] of the same molecule?
**A.** 5.03%

**Q.** And the viability, T/C [5]?
**A.** 3.07%

**Q.** What about the viability, T/C [6] of the same molecule?
**A.** 1.53%

**Q.** What about the viability, T/C [7] of the same molecule?
**A.** 53.6%

**Q.** And the viability, T/C [8]?
**A.** 14.6%

**Q.** And the viability, T/C [9]?
**A.** 7.37%

**Q.** What about the viability, T/C [10] of the same molecule?
**A.** 4.23%

**Q.** What about the viability, T/C [11] of the same molecule?
**A.** 3.04%

**Q.** What about the viability, T/C [12] of the same molecule?
**A.** 1.53%

**Q.** And the viability, T/C [13]?
**A.** 46.3%

**Q.** And the viability, T/C [14]?
**A.** 13.7%

**Q.** And the viability, T/C [15]?
**A.** 6.83%

**Q.** And the viability, T/C [16]?
**A.** 5.76%

**Q.** What about the viability, T/C [17] of the same molecule?
**A.** 2.86%

**Q.** What about the viability, T/C [18] of the same molecule?
**A.** 1.53%

**Q.** And the viability, T/C [19]?
**A.** 44.8%

**Q.** What about the viability, T/C [20] of the same molecule?
**A.** 15.2%

**Q.** What about the viability, T/C [21] of the same molecule?
**A.** 8.04%

**Q.** And the viability, T/C [22]?
**A.** 5.03%

**Q.** And the viability, T/C [23]?
**A.** 2.97%

**Q.** What about the viability, T/C [24] of the same molecule?
**A.** 1.31%

**Q.** And the viability, T/C [25]?
**A.** 40%

**Q.** And the viability, T/C [26]?
**A.** 12.1%

**Q.** What about the viability, T/C [27] of the same molecule?
**A.** 6.92%

**Q.** And the viability, T/C [28]?
**A.** 5.22%

**Q.** And the viability, T/C [29]?
**A.** 2.69%

**Q.** And the viability, T/C [30]?
**A.** 1.55%

**Q.** What about the viability, T/C [31] of the same molecule?
**A.** 28.5%

**Q.** What about the viability, T/C [32] of the same molecule?
**A.** 11.5%

**Q.** What about the viability, T/C [33] of the same molecule?
**A.** 7.06%

**Q.** What about the viability, T/C [34] of the same molecule?
**A.** 3.56%

**Q.** And the viability, T/C [35]?
**A.** 2.83%

**Q.** What about the viability, T/C [36] of the same molecule?
**A.** 2.09%

**Q.** For `COc1cccc(OCCCN)c1-c1cc(Nc2cnc(C#N)cn2)n[nH]1` + Cc1cccc(N(C)C(=O)C2C(O)CCN2c2nc(C)cc(C(F)(F)F)c2C#N)c1, which IC50 (second compound 0.0316 µM) is on record?
**A.** 26.3 nM

**Q.** And the IC50 (second compound 0.1 µM)?
**A.** 23.9 nM

**Q.** What about the IC50 (second compound 0.316 µM) of the same molecule?
**A.** 25.6 nM

**Q.** And the IC50 (second compound 1 µM)?
**A.** 24.7 nM

**Q.** And the IC50 (second compound 3.16 µM)?
**A.** 23.7 nM

**Q.** And the IC50 (second compound 10 µM)?
**A.** 21.7 nM

**Q.** And the viability, T/C [1]?
**A.** 122%

**Q.** What about the viability, T/C [2] of the same molecule?
**A.** 162%

**Q.** What about the viability, T/C [3] of the same molecule?
**A.** 32.3%

**Q.** What about the viability, T/C [4] of the same molecule?
**A.** 11.9%

**Q.** And the viability, T/C [5]?
**A.** 8.13%

**Q.** What about the viability, T/C [6] of the same molecule?
**A.** 5.03%

**Q.** And the viability, T/C [7]?
**A.** 98.7%

**Q.** And the viability, T/C [8]?
**A.** 149%

**Q.** And the viability, T/C [9]?
**A.** 26.4%

**Q.** What about the viability, T/C [10] of the same molecule?
**A.** 8.17%

**Q.** What about the viability, T/C [11] of the same molecule?
**A.** 7.52%

**Q.** What about the viability, T/C [12] of the same molecule?
**A.** 6.18%

**Q.** What about the viability, T/C [13] of the same molecule?
**A.** 99.1%

**Q.** What about the viability, T/C [14] of the same molecule?
**A.** 144%

**Q.** What about the viability, T/C [15] of the same molecule?
**A.** 34.1%

**Q.** What about the viability, T/C [16] of the same molecule?
**A.** 13.6%

**Q.** What about the viability, T/C [17] of the same molecule?
**A.** 7.31%

**Q.** And the viability, T/C [18]?
**A.** 6.21%

**Q.** What about the viability, T/C [19] of the same molecule?
**A.** 97.4%

**Q.** And the viability, T/C [20]?
**A.** 133%

**Q.** What about the viability, T/C [21] of the same molecule?
**A.** 32.1%

**Q.** And the viability, T/C [22]?
**A.** 9.07%

**Q.** What about the viability, T/C [23] of the same molecule?
**A.** 8.72%

**Q.** What about the viability, T/C [24] of the same molecule?
**A.** 8.98%

**Q.** And the viability, T/C [25]?
**A.** 87.8%

**Q.** And the viability, T/C [26]?
**A.** 183%

**Q.** And the viability, T/C [27]?
**A.** 21.4%

**Q.** What about the viability, T/C [28] of the same molecule?
**A.** 14.6%

**Q.** And the viability, T/C [29]?
**A.** 7.43%

**Q.** What about the viability, T/C [30] of the same molecule?
**A.** 5.57%

**Q.** And the viability, T/C [31]?
**A.** 137%

**Q.** And the viability, T/C [32]?
**A.** 94.1%

**Q.** And the viability, T/C [33]?
**A.** 28.3%

**Q.** And the viability, T/C [34]?
**A.** 11.2%

**Q.** And the viability, T/C [35]?
**A.** 9.5%

**Q.** And the viability, T/C [36]?
**A.** 7.47%

— PubChem BioAssay AID1963838 (Molecular Pharmacology Branch, DTP, NCI, 2024)
